# Patent US20060074255A1, “3-Methyl-20-epi-vitamin D derivatives” (priority 2000, published 2006)
# Target: T1, bovine thymus vitamin D receptor (Bos taurus, UniProt Q28037)
# T1 construct: Bovine thymus 1α,25-dihydroxyvitamin D3 receptor was purchased from Yamasa Biochemcal; purchased Yamasa Biochemcal (Choshi, Chiba, Japan) lot; 112631; host or cells: bovine thymus (tissue preparation)
# T1 sequence (Q28037 1-426): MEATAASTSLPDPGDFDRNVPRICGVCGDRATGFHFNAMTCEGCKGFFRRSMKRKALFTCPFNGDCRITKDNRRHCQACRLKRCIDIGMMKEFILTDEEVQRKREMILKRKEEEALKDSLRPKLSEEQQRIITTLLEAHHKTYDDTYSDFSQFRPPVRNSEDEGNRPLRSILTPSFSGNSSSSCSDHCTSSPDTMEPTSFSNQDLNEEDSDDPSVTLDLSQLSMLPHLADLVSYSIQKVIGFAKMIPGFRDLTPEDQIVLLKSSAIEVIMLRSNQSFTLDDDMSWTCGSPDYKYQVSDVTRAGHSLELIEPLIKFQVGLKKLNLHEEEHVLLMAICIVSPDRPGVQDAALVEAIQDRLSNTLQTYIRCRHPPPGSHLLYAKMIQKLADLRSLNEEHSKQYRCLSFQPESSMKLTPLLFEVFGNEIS
# Assay: Assay for Binding to Bovine Thymus Vitamin D Receptor (VDR)
# Conditions: relative value with 1α,25-dihydroxyvitamin D3 taken as 100; X=(y/x)×100 from concentrations inhibiting 50% of [3H]-1α,25-dihydroxyvitamin D3 binding to VDR
# Protocol: Assay for Binding to Bovine Thymus Vitamin D Receptor (VDR)
# Compounds 14, 16, 19 and 21 synthesized in the above Examples 1 to 4 were tested for their binding properties to bovine thymus vitamin D receptor.
# Ethanol solutions of 1α,25-dihydroxyvitamin D3 (the standard substance) and Compounds 14, 16, 19 and 21 were prepared at various concentrations. Bovine thymus 1α,25-dihydroxyvitamin D3 receptor was purchased from Yamasa Biochemcal (Choshi, Chiba, Japan) (lot. 112631) and, just before use, one ampule (approximately 25 mg) of the receptor was dissolved in 55 mL of 0.05 M phosphate buffer (pH 7.4) containing 0.3M KCl and 5 mM dithiothreitol.
# Each of the ethanol solutions (50 μl) of the test compounds and 1α,25-dihydroxyvitamin D3 was put into a respective tube with 500 μl (0.23 mg protein) of the receptor solution, pre-incubated at 25° C. for 1 hour, and [^3H]-1α,25-dihydroxyvitamin D3 was added at the final concentration of 0.1 nM, followed by incubation overnight at 4° C. Each of the reaction mixtures was mixed with DCC (dextran coated charcoal), left for 30 minutes at 4° C. and centrifuged at 3000 rpm for ten minutes to separate the bound and free forms of [^3H]-1α,25-dihydroxyvitamin D3. Each of the resultant supernatants (500 μl) was mixed with ACS-II (9.5 ml) (AMERSHAM, England) for radioactivity measurement.
# The binding properties of the test compounds expressed in relative value with that of 1α,25-dihydroxyvitamin D3 taken as 100 were shown in Table below. The values were calculated according to the following equation. X=(y/x)×100 • X: relative VDR binding property of a test compound • y: concentration of 1α,25-dihydroxyvitamin D3 that inhibits 50% of the binding of [^3H]-1α,25-dihydroxyvitamin D3 and VDR
# x: concentration of the test compound that inhibits 50% of the binding of [^3H]-1α,25-dihydroxyvitamin D3 and VDR
row,VDR binding properties,SMILES
1,0.035,"C=C1/C(=C\C=C2/CCC[C@@]3(C)C2CCC3[C@@H](C)CCCC(C)(C)O)C[C@@](C)(O)C[C@H]1O (stereo partly drawn) [Compound 14, (5Z,7E)-(1R,3R,20S)-3-methyl-9,10-seco-5,7,10(19)-cholestatriene-1,3,25-triol]"
2,70,"C=C1/C(=C\C=C2/CCC[C@@]3(C)C2CCC3[C@@H](C)CCCC(C)(C)O)C[C@@](C)(O)C[C@@H]1O (stereo partly drawn) [Compound 16, (5Z,7E)-(1S,3R,20S)-3-methyl-9,10-seco-5,7,10(19)-cholestatriene-1,3,25-triol]"
3,0.24,"C=C1/C(=C\C=C2/CCC[C@@]3(C)C2CCC3[C@@H](C)CCCC(C)(C)O)C[C@](C)(O)C[C@@H]1O (stereo partly drawn) [Compound 19, (5Z,7E)-(lS,3S,20S)-3-methyl-9,10-seco-5,7,10(19)-cholestatriene-1,3,25-triol]"
4,<0.01,"C=C1/C(=C\C=C2/CCC[C@@]3(C)C2CCC3[C@@H](C)CCCC(C)(C)O)C[C@](C)(O)C[C@H]1O (stereo partly drawn) [Compound 21, (5Z,7E)-(1R,3S,20S)-3-Methyl-9,10-seco-5,7,10(19)-cholestatriene-1,3,25-triol]"
